Structures can show the parent of a compound that is named as a salt. Where only a bound is given, the exact number is not on record here.

Tested on in one data set: not given
Test: not given
For the molecule `COc1cc(C(C)C)c(Oc2cnc(N[C@H](C)CO)nc2N)cc1Cl` (as salt: hydrochloride) [Compound 120, 2-[4-Amino-5-(5-chloro-2-isopropyl-4-methoxy-phenoxy)-pyrimidin-2-ylamino]-(R)-propan-1-ol], the melting point (as a rule, the temperature, or range, at which the solid turns liquid) fell in the range of 111.4 to 116.9 °C.
On the same count and under the same terms, with `Cc1cn(C)c2cc(C(F)(F)F)c(Oc3cnc(N)nc3N)cc12` (as salt: hydrochloride) [Example 63, 5-(1,3-Dimethyl-6-trifluoromethyl-1H-indol-5-yloxy)-pyrimidine-2,4-diamine] the figure was 256 °C; with `Cc1nc2c(C)cc(Oc3cnc(N)nc3N)c(C(C)C)c2o1` (as salt: hydrochloride) [Example 66, 5-(7-Isopropyl-2,4-dimethyl-benzooxazol-6-yloxy)-pyrimidine-2,4-diamine], above 300 °C.
Turning to `COc1cc(C(C)C)c(Oc2cnc(N)nc2N)cc1-c1ncon1` (as salt: trifluoroacetic acid salt) [Example 57, 5-(2-Isopropyl-4-methoxy-5-[1,2,4]oxadiazol-3-yl-phenoxy)-pyrimidine-2,4-diamine], the melting point fell in the range of 135 to 138.5 °C.
In the case of `CNC(=O)OC[C@@H](C)Nc1ncc(Oc2cc(Cl)c(OC)cc2C(C)C)c(N)n1` (stereo in doubt) [Example 7, Methyl-carbamic acid 2-[4-amino-5-(5-chloro-2-isopropyl-4-methoxy-phenoxy)-pyrimidin-2-ylamino]-propyl ester], the melting point was in the range of 63.5 to 69.4 °C.
The molecule `CC(C)c1cc2c(cc1Oc1cnc(N)nc1N)OCCN2C` [Example 58, 5-(6-Isopropyl-4-methyl-3,4-dihydro-2H-benzo[1,4]oxazin-7-yloxy)-pyrimidine-2,4-diamine] registered a melting point of 167.3 to 170.1 °C.
The molecule `COc1cc(C(C)C)c(Oc2cnc(N)nc2N)cc1-c1ccco1` [Example 59, 5-(5-Furan-2-yl-2-isopropyl-4-methoxy-phenoxy)-pyrimidine-2,4-diamine] registered a melting point of 253.7 to 254.6 °C.
On the same count and under the same terms, with `COc1cc(C(C)C)c(Oc2cnc(N)nc2N)cc1N1CCN(S(C)(=O)=O)CC1` [Example 61, 5-[2-Isopropyl-5-(4-methanesulfonyl-piperazin-1-yl)-4-methoxy-phenoxy]-pyrimidine-2,4-diamine] the figure was 115 to 117 °C.
Still for that read-out and setting: the same measure for `CCc1c(Oc2cnc(N)nc2N)cc(C)c2sccc12` [Example 62, 5-(4-Ethyl-7-methyl-benzo[b]thiophen-5-yloxy)-pyrimidine-2,4-diamine]: 181 °C.
The same measure, in the same setting: with `Cc1c(C(=O)O)[nH]c2cc(Oc3cnc(N)nc3N)c(C(C)C)cc12` [Example 64, 6-(2,4-Diamino-pyrimidin-5-yloxy)-5-isopropyl-3-methyl-1H-indole-2-carboxylic acid] the figure was above 300 °C.

The next data set has as its target T1, rat P2X3 receptor (Rattus norvegicus, UniProt P49654).
T1 sequence (P49654 1-397): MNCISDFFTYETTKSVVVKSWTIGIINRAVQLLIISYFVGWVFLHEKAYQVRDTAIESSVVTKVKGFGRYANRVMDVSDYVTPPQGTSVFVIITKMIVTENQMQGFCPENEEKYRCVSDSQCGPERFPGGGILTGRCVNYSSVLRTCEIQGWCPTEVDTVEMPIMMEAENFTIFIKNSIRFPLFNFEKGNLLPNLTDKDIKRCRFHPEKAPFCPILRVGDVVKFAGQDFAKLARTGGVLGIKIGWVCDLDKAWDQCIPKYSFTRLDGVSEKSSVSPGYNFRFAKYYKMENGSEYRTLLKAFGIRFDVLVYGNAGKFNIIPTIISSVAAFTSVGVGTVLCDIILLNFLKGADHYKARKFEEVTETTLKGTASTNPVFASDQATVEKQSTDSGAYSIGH
The experiment in a line: cell-based.
Procedure: P2X3/P2X2/3 FLIPR (Fluorometric Imaging Plate Reader) Assay
CHO-K1 cells were transfected with cloned rat P2X3 or human P2X2/3 receptor subunits and passaged in flasks. 18-24 hours before the FLIPR experiment, cells were released from their flasks, centrifuged, and resuspended in nutrient medium at 2.5×10^5 cells/ml. The cells were aliquoted into black-walled 96-well plates at a density of 50,000 cells/well and incubated overnight in 5% CO2 at 37° C. On the day of the experiment, cells were washed in FLIPR buffer (calcium- and magnesium-free Hank's balanced salt solution, 10 mM HEPES, 2 mM CaCl2, 2.5 mM probenecid; FB). […]
Test compounds (dissolved in DMSO at 10 mM and serially diluted with FB) or vehicle were added to each well (25 μl of a 4× solution) and allowed to equilibrate for 20 minutes at room temperature. The plates were then placed in the FLIPR and a baseline fluorescence measurement (excitation at 488 nm and emission at 510-570 nm) was obtained for 10 seconds before a 100 μl/well agonist or vehicle addition. […] Fluorescence was measured for an additional 2 minutes at 1 second intervals after agonist addition. A final addition of ionomycin (5 μM, final concentration) was made to each well of the FLIPR test plate to establish cell viability and maximum fluorescence of dye-bound cytosolic calcium. […]
Take `CC(C)c1cc(O)c(I)cc1Oc1cnc(N)nc1N` [4-(2,4-Diamino-pyrimidin-5-yloxy)-2-iodo-5-isopropyl-phenol]: the IC50 (in general, the concentration that gives 50% inhibition) is around 5.01 nM.
Regarding `COc1cc(C)c(Cc2cnc(N)nc2N)cc1OC` [5-(4,5-Dimethoxy-2-methyl-benzyl)-pyrimidine-2,4-diamine], the IC50 is above 10000 nM.

The record behind these values is patent publication US8846705B2, “Diaminopyrimidines as P2X3 and P2X2/3 antagonists” (Roche Palo Alto LLC, priority 2004, dated 2014).
